Laboratory results reported in the kinase profiling compilation of Christmann-Franck et al. (2016).

Key:
Experiment in all cases: KINOMEscan competition binding
Conditions in all cases: compound 10.0 µM
EPHA5 (human) = EPHA5 (human) (UniProt P54756)
STK32B (human) = STK32B (human) (UniProt Q9NY57)
CAMK2G (human) = CAMK2G (human) (UniProt Q13555)
PAK1 (human) = PAK1 (human) (UniProt Q13153)
TNK1 (human) = TNK1 (human) (UniProt Q13470)
ADCK3 (human) = ADCK3 (human) (UniProt Q8NI60)
RIPK4 (human) = RIPK4 (human) (UniProt P57078)
CDK3 (human) = CDK3 (human) (UniProt Q00526)
CDK9 (human) = CDK9 (human) (UniProt P50750)
CSNK1G1 (human) = CSNK1G1 (human) (UniProt Q9HCP0)
DAPK2 (human) = DAPK2 (human) (UniProt Q9UIK4)
LATS2 (human) = LATS2 (human) (UniProt Q9NRM7)
STK25 (human) = STK25 (human) (UniProt O00506)
Sequence of STK25 (human) (O00506 whole entry, looked up): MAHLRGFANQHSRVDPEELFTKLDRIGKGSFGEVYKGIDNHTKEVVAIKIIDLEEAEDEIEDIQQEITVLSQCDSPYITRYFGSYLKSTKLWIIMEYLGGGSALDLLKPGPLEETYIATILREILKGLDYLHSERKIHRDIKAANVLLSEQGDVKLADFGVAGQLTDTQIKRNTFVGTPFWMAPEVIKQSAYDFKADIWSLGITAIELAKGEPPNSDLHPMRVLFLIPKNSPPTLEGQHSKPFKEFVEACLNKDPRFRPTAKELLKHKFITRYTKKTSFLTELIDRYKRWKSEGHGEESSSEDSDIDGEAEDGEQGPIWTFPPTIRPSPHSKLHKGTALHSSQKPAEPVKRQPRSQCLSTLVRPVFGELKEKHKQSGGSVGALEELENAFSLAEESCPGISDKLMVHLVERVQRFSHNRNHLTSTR

LTK (human) = LTK (human) (UniProt P29376)
RIOK1 (human) = RIOK1 (human) (UniProt Q9BRS2)
Sequence of RIOK1 (human) (Q9BRS2 whole entry, looked up): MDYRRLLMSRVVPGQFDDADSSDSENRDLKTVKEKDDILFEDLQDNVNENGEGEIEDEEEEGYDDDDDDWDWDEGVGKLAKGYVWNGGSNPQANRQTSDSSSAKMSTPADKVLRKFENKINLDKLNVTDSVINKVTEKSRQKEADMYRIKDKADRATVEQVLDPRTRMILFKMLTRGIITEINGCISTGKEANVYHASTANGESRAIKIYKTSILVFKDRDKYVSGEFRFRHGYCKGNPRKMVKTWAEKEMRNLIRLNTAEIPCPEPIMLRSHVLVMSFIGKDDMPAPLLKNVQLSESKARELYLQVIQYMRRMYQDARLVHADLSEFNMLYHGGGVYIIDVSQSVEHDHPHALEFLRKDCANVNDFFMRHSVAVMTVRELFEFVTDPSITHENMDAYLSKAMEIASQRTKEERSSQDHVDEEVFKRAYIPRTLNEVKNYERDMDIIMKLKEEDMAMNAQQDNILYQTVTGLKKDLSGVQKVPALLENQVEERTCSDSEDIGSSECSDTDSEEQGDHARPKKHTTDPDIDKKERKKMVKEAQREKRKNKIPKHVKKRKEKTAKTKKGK

MINK1 (human) = MINK1 (human) (UniProt Q8N4C8)
RPS6KA3 KD1 (human) = RPS6KA3 KD1 (human) (UniProt P51812)
MAPK4 (human) = MAPK4 (human) (UniProt P31152)
PRKD1 (human) = PRKD1 (human) (UniProt Q15139)
CHEK2 (human) = CHEK2 (human) (UniProt O96017)
CIT (human) = CIT (human) (UniProt O14578)
STK10 (human) = STK10 (human) (UniProt O94804)
PAK6 (human) = PAK6 (human) (UniProt Q9NQU5)
FRK (human) = FRK (human) (UniProt P42685)
CSNK1G3 (human) = CSNK1G3 (human) (UniProt Q9Y6M4)
RIOK3 (human) = RIOK3 (human) (UniProt O14730)
DAPK1 (human) = DAPK1 (human) (UniProt P53355)
MAP3K5 (human) = MAP3K5 (human) (UniProt Q99683)
MAP3K11 (human) = MAP3K11 (human) (UniProt Q16584)
Sequence of MAP3K11 (human) (Q16584 whole entry, looked up): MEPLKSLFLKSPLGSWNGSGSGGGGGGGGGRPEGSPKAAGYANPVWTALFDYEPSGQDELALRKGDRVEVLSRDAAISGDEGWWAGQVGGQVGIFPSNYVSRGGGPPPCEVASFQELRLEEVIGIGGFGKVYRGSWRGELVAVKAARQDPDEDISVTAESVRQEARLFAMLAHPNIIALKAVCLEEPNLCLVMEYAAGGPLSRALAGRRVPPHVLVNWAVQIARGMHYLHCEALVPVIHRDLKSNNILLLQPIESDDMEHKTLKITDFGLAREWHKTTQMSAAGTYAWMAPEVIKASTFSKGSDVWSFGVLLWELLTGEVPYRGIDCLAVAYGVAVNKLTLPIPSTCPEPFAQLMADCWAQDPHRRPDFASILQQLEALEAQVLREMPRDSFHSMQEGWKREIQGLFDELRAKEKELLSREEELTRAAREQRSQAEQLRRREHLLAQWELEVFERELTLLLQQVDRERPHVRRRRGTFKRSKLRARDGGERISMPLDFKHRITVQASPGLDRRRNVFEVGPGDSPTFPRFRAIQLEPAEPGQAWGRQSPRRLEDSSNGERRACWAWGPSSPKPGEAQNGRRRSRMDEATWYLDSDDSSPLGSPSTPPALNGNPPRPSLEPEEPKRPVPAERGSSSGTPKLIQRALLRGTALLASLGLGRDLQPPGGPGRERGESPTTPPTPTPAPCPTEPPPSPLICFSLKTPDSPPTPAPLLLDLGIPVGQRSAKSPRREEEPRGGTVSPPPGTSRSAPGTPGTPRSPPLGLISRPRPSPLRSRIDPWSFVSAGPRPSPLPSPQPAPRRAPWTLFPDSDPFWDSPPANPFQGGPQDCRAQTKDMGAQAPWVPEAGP

PTK2B (human) = PTK2B (human) (UniProt Q14289)
[1] = molecular target: JAK1 JH1 catalytic (human) (UniProt P23458)
Sequence of JAK1 JH1 catalytic (human) (P23458 whole entry, looked up): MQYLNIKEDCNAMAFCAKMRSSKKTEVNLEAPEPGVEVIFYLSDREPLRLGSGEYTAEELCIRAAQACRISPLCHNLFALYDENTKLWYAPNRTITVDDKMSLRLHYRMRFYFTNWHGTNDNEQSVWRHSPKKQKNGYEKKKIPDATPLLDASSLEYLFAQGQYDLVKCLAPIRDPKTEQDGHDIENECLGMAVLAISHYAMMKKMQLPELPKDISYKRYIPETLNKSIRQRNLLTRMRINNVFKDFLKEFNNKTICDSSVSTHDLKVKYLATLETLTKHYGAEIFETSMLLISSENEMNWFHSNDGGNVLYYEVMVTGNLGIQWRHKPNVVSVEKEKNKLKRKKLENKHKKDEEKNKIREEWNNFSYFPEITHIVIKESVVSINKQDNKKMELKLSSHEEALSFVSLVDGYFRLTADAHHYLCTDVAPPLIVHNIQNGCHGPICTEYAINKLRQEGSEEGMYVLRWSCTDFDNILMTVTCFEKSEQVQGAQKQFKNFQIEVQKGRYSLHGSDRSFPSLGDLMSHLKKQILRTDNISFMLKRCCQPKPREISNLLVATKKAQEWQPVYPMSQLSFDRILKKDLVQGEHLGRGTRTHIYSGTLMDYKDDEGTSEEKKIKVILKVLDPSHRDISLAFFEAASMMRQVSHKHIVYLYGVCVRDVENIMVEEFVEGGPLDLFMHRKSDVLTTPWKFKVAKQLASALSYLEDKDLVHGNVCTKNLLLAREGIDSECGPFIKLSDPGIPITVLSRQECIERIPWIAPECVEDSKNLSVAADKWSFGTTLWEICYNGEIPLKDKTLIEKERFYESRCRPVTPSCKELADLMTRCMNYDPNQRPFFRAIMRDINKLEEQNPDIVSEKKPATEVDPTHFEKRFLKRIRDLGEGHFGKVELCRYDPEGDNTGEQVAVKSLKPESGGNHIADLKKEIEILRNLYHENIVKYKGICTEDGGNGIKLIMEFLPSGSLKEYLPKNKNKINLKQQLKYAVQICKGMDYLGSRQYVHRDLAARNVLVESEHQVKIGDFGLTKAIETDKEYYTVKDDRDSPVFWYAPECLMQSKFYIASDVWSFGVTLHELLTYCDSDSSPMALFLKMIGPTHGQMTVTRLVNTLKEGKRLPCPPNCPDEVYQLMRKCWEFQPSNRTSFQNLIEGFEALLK

RPS6KA6 KD2 (human) = RPS6KA6 KD2 (human) (UniProt Q9UK32)
TXK (human) = TXK (human) (UniProt P42681)
EPHA4 (human) = EPHA4 (human) (UniProt P54764)
MAP4K4 (human) = MAP4K4 (human) (UniProt O95819)
TGFBR2 (human) = TGFBR2 (human) (UniProt P37173)
ACVR2B (human) = ACVR2B (human) (UniProt Q13705)
MAPK1 (human) = MAPK1 (human) (UniProt P28482)
CDC2L2 (human) = CDC2L2 (human) (UniProt Q9UQ88)
MAPK9 (human) = MAPK9 (human) (UniProt P45984)
Sequence of MAPK9 (human) (P45984 whole entry, looked up): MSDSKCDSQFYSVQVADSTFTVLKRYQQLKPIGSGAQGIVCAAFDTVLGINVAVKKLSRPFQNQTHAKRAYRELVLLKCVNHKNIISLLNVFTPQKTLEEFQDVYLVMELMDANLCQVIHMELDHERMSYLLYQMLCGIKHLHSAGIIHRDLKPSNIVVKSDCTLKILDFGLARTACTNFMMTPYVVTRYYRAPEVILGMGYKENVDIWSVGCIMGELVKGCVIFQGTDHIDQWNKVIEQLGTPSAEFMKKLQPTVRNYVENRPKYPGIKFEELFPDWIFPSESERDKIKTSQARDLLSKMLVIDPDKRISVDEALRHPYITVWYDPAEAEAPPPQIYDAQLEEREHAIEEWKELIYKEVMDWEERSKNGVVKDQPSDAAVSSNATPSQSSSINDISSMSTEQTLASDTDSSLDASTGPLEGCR

Sequence of STK32B (human) (Q9NY57 whole entry, looked up): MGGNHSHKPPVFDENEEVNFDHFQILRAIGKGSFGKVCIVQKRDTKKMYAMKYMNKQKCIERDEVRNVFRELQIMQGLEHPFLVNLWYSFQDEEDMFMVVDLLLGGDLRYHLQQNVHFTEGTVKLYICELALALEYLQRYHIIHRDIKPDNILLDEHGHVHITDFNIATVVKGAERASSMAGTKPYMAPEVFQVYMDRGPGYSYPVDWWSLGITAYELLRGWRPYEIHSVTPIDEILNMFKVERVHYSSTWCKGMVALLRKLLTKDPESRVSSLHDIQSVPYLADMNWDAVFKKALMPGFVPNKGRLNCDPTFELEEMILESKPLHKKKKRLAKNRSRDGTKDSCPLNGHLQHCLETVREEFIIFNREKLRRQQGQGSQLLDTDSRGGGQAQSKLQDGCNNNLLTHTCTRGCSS
Sequence of EPHA5 (human) (P54756 whole entry, looked up): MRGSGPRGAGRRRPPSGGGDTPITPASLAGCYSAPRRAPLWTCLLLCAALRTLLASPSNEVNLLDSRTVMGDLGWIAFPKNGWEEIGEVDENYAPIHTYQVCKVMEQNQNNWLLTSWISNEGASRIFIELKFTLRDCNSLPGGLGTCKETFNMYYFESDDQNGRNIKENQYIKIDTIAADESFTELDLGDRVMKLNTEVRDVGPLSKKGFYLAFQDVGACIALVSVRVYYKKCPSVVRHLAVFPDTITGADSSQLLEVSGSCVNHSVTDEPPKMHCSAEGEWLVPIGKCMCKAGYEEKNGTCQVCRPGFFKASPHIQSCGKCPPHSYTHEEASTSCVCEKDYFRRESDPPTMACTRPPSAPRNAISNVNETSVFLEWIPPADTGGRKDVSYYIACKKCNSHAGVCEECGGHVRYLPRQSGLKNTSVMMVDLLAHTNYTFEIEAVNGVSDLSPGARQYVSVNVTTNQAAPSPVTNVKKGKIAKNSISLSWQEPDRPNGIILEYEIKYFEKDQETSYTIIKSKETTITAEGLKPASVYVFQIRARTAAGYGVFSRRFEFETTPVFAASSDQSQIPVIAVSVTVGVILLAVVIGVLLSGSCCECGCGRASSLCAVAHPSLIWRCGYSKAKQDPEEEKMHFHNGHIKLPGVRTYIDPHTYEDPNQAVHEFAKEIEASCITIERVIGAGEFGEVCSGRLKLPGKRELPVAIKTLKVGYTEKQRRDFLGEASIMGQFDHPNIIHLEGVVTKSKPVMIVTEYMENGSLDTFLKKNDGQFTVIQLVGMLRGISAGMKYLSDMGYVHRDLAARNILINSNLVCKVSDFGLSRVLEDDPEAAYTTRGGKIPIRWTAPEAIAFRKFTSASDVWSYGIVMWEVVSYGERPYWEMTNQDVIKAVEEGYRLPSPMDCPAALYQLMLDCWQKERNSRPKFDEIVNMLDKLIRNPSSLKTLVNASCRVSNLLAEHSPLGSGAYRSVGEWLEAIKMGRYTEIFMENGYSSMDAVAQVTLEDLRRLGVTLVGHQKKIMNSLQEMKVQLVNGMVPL

Structure (SMILES): O=C(NC1CC1)c1cccc(-c2ccc3c(NC(=O)C4CC4)n[nH]c3c2)c1
- kinase still bound, per cent of control (EPHA5 (human)): 95%
- kinase still bound, per cent of control (STK32B (human)): 100%
- kinase still bound, per cent of control (CAMK2G (human)): 89%
- kinase still bound, per cent of control (PAK1 (human)): 70%
- kinase still bound, per cent of control (TNK1 (human)): 100%
- kinase still bound, per cent of control (ADCK3 (human)): 78%
- kinase still bound, per cent of control (RIPK4 (human)): 84%
- kinase still bound, per cent of control (CDK3 (human)): 7.2%
- kinase still bound, per cent of control (CDK9 (human)): 93%
- kinase still bound, per cent of control (CSNK1G1 (human)): 85%
- kinase still bound, per cent of control (DAPK2 (human)): 87%
- kinase still bound, per cent of control (LATS2 (human)): 85%
- kinase still bound, per cent of control (STK25 (human)): 76%
- kinase still bound, per cent of control (LTK (human)): 100%
- kinase still bound, per cent of control (RIOK1 (human)): 10%
- kinase still bound, per cent of control (MINK1 (human)): 43%
- kinase still bound, per cent of control (RPS6KA3 KD1 (human)): 86%
- kinase still bound, per cent of control (MAPK4 (human)): 100%
- kinase still bound, per cent of control (PRKD1 (human)): 100%
- kinase still bound, per cent of control (CHEK2 (human)): 100%
- kinase still bound, per cent of control (CIT (human)): 89%
- kinase still bound, per cent of control (STK10 (human)): 57%
- kinase still bound, per cent of control (PAK6 (human)): 61%
- kinase still bound, per cent of control (FRK (human)): 89%
- kinase still bound, per cent of control (CSNK1G3 (human)): 98%
- kinase still bound, per cent of control (RIOK3 (human)): 6.8%
- kinase still bound, per cent of control (DAPK1 (human)): 91%
- kinase still bound, per cent of control (MAP3K5 (human)): 100%
- kinase still bound, per cent of control (MAP3K11 (human)): 100%
- kinase still bound, per cent of control (PTK2B (human)): 100%
- kinase still bound, per cent of control [1]: 100%
- kinase still bound, per cent of control (RPS6KA6 KD2 (human)): 60%
- kinase still bound, per cent of control (TXK (human)): 77%
- kinase still bound, per cent of control (EPHA4 (human)): 100%
- kinase still bound, per cent of control (MAP4K4 (human)): 84%
- kinase still bound, per cent of control (TGFBR2 (human)): 100%
- kinase still bound, per cent of control (ACVR2B (human)): 84%
- kinase still bound, per cent of control (MAPK1 (human)): 100%
- kinase still bound, per cent of control (CDC2L2 (human)): 85%
- kinase still bound, per cent of control (MAPK9 (human)): 50%

Structure (SMILES): Cc1ccc(C(=O)Nc2cccc(C(F)(F)F)c2)cc1Nc1cncc(C(N)=O)c1
- kinase still bound, per cent of control (EPHA5 (human)): 1.1%
- kinase still bound, per cent of control (STK32B (human)): 100%
- kinase still bound, per cent of control (CAMK2G (human)): 100%
- kinase still bound, per cent of control (PAK1 (human)): 100%
- kinase still bound, per cent of control (TNK1 (human)): 100%
- kinase still bound, per cent of control (ADCK3 (human)): 100%
- kinase still bound, per cent of control (RIPK4 (human)): 100%
- kinase still bound, per cent of control (CDK3 (human)): 100%
- kinase still bound, per cent of control (CDK9 (human)): 100%
- kinase still bound, per cent of control (CSNK1G1 (human)): 100%
- kinase still bound, per cent of control (DAPK2 (human)): 100%
- kinase still bound, per cent of control (LATS2 (human)): 100%
- kinase still bound, per cent of control (STK25 (human)): 100%
- kinase still bound, per cent of control (LTK (human)): 100%
- kinase still bound, per cent of control (RIOK1 (human)): 100%
- kinase still bound, per cent of control (MINK1 (human)): 100%
- kinase still bound, per cent of control (RPS6KA3 KD1 (human)): 100%
- kinase still bound, per cent of control (MAPK4 (human)): 100%
- kinase still bound, per cent of control (PRKD1 (human)): 100%
- kinase still bound, per cent of control (CHEK2 (human)): 100%
- kinase still bound, per cent of control (CIT (human)): 100%
- kinase still bound, per cent of control (STK10 (human)): 100%
- kinase still bound, per cent of control (PAK6 (human)): 100%
- kinase still bound, per cent of control (FRK (human)): 1.3%
- kinase still bound, per cent of control (CSNK1G3 (human)): 100%
- kinase still bound, per cent of control (RIOK3 (human)): 100%
- kinase still bound, per cent of control (DAPK1 (human)): 100%
- kinase still bound, per cent of control (MAP3K5 (human)): 100%
- kinase still bound, per cent of control (MAP3K11 (human)): 100%
- kinase still bound, per cent of control (PTK2B (human)): 100%
- kinase still bound, per cent of control [1]: 100%
- kinase still bound, per cent of control (RPS6KA6 KD2 (human)): 100%
- kinase still bound, per cent of control (TXK (human)): 100%
- kinase still bound, per cent of control (EPHA4 (human)): 6.8%
- kinase still bound, per cent of control (MAP4K4 (human)): 100%
- kinase still bound, per cent of control (TGFBR2 (human)): 100%
- kinase still bound, per cent of control (ACVR2B (human)): 100%
- kinase still bound, per cent of control (MAPK1 (human)): 100%
- kinase still bound, per cent of control (CDC2L2 (human)): 100%
- kinase still bound, per cent of control (MAPK9 (human)): 100%
